{
  "source": "patent US20250339396A1",
  "about": "(COSMAS THERAPEUTICS DEVELOPMENT INC., priority 2021, published 2025)",
  "key": {"[1]": {"test": "Pharmacokinetic study in male Beagle dogs (UCM924 measured in plasma)", "assay_type": "in vivo", "conditions": "dog, UCM924 plasmatic level, UCM924 2 mg/kg IV", "protocol": "(§1) In vivo pharmacokinetic studies of prodrug D were carried in male rats (Sprague-Dawley, weight 210-214 grams) and male dogs (Beagles, weight 8960-9820 grams). Animals were housed under standard conditions and had free access to water and standard laboratory diet. Care and husbandry of animals were in conformity with the institutional guidelines, in compliance with national and international laws and policies (EEC Council Directive 86/609, OJL 358m, 1, Dec. 122, 1987; NIH Guide for the care and Use of Laboratory Animals, NIH Publication No. 86-23, 1985). The compounds were dissolved in water containing 40% PEG 400 at a concentration of 15 mg/ml (clear solution) for the PO dose for Dog, or in water containing 40% PEG 400 at a concentration of 12.5 mg/ml (clear solution) for the PO dose for Rat. Dogs were randomly assigned to treatment groups (n=3) and received a single oral administration (15 mg/kg) through oral gavage of Prodrug D and the level of the active metabolite UCM924 was then measured. Serial blood samples (200 uL) were collected from caudal vein at 5, 15, 30, 60, 120, 240, 360, 480 and 1440 min after PO administration. […] UCM924 (20 mg/kg) was also administered per os in rats and IV in dogs (2 mg/kg) and it was measured in plasma. […]"}, "[2]": {"test": "Pharmacokinetic study in male rats (UCM924 measured in plasma)", "assay_type": "in vivo", "conditions": "Sprague-Dawley, rat, po, UCM924 plasmatic level, UCM924 20 mg/kg per os", "protocol": "as §1, with “Rats” for “Dogs”, “(50” for “(15”, “mg/kg)” for “mg/kg) through oral gavage”, “administration. Blood samples were collected into a prechilled commercial tube (Jiangsu Kangjian medical supplies co., LTD) containing Potassium (K2) EDTA (0.85-1.15 mg).” for “administration.”"}, "[3]": {"conditions": "in vivo; cited from earlier work"}, "[4]": {"conditions": "in vivo; cited from earlier work", "remark": "listed apart in the source"}, "[5]": {"test": "Oral bioavailability and brain penetrance of UCM765 and UCM924"}, "[6]": {"test": "Stability of Prodrug D in solvents by HPLC", "assay_type": "physicochemical", "conditions": "HPLC Method 2", "protocol": "For this test, we used HPLC with different solvent systems. […] Therefore, after initial assessment, this method was used for the remaining tests. Prodrug D or UCM924 (comparator) were dissolved in the different solvents listed in the table below and, after the waiting period indicated, HPLC tests were carried out according to the above. The results are shown in the table below, in which the percentages represent the quantity of prodrug D or UCM924 detected in the samples."}},
  "data": [
    {"smiles": "CC(=O)NCCN(c1ccc(F)cc1)c1cccc(Br)c1", "note": "[UCM924, N-{2-[(3-bromophenyl)-(4-fluorophenyl)amino]ethyl}acetamide]", "values": [
      {"measurement": "AUC(0-t)", "setting": "[1]", "result": "1690 ± 275", "unit": "ng·h/mL"},
      {"measurement": "half-life", "setting": "[1]", "result": "107 ± 24", "unit": "min"},
      {"measurement": "AUC(0-t)", "setting": "[2]", "result": "97.7 ± 61", "unit": "ng·h/mL"},
      {"measurement": "Cmax", "setting": "[2]", "result": "42 ± 34", "unit": "ng/mL"},
      {"measurement": "motor impairments in the RotaRod test", "setting": "[3]", "result": "did not produce any motor impairments"},
      {"measurement": "antinociceptive properties in tests for chronic neuropathic pain", "setting": "[4]", "result": "potent antinociceptive properties"},
      {"measurement": "Kp", "setting": "[5]; brain", "result": 2.5},
      {"measurement": "bioavailability", "setting": "[5]; in vivo, po", "result": 6, "unit": "%"},
      {"measurement": "quantity detected in the sample by HPLC", "setting": "[6]; 1N HCl, overnight at rt, pH ~0", "result": 14.79, "unit": "%"},
      {"measurement": "quantity detected in the sample by HPLC", "setting": "[6]; 40% PEG400:60% H2O, overnight at rt, pH ~7.0", "result": 40.16, "unit": "%"},
      {"measurement": "quantity detected in the sample by HPLC", "setting": "[6]; H2O, overnight at rt, pH ~7.0", "result": 80.09, "unit": "%"},
      {"measurement": "quantity detected in the sample by HPLC", "setting": "[6]; Saturated NaHCO3aq, 2 h at rt, pH ~8.5", "result": 62.33, "unit": "%"}
    ]}
  ]
}
